{"source": "patent US20140171357A1", "about": "“VANCOMYCIN DERIVATIVES” (Seachald Pharmaceuticals, Inc., priority 2011, published 2014)", "key": {"[1]": {"tested_on": "methicillin-susceptible S. aureus (MSSA, 22)", "experiment": "MIC broth microdilution, MSSA", "conditions": "MSSA (22)"}, "[2]": {"tested_on": "vancomycin-intermediate S. aureus (VISA, 5)", "experiment": "MIC broth microdilution, VISA"}, "[3]": {"tested_on": "vancomycin-resistant S. aureus (VRSA, 6)", "experiment": "MIC broth microdilution, VRSA"}, "[4]": {"tested_on": "heterogeneous VISA (hVISA, 10)", "experiment": "MIC broth microdilution, hVISA"}, "S. pneumoniae (22)": {"tested_on": "S. pneumoniae (22)", "experiment": "MIC broth microdilution, S. pneumoniae", "conditions": "for fold more potent than linezolid: S. pneumoniae; for MIC 50% / MIC 90%: S. pneumoniae (22), MHB + lysed horse blood"}, "[5]": {"tested_on": "Staphylococcus epidermidis (43 strains)", "experiment": "MIC broth microdilution, S. epidermidis", "conditions": "S. epidermidis (43)"}, "[6]": {"tested_on": "VanA vancomycin-resistant E. faecium (10)", "experiment": "MIC broth microdilution, VanA E. faecium", "conditions": "E. faecium, VanA (10)"}, "[7]": {"tested_on": "VanB vancomycin-resistant E. faecium (10)", "experiment": "MIC broth microdilution, VanB E. faecium", "conditions": "E. faecium, VanB (10)"}, "S. aureus ATCC 25923": {"tested_on": "S. aureus ATCC 25923", "experiment": "Neutropenic murine thigh infection model", "conditions": "for AUCc-t (AUC difference between control and treated animals): 24 h time kill; for in vivo efficacy against S. aureus (in words): neutropenic soft tissue infection model"}, "[8]": {"tested_on": "VanA vancomycin-resistant E. faecalis (11)", "experiment": "MIC broth microdilution, VanA E. faecalis", "conditions": "E. faecalis, VanA (11)"}, "[9]": {"tested_on": "VanB vancomycin-resistant E. faecalis (12)", "experiment": "MIC broth microdilution, VanB E. faecalis", "conditions": "E. faecalis, VanB (12)"}, "[10]": {"tested_on": "Staphylococcus aureus (65 strains)", "experiment": "MIC broth microdilution, S. aureus all isolates", "conditions": "S. aureus (65), all resistance subsets"}, "[11]": {"tested_on": "β-hemolytic streptococci (23)", "experiment": "MIC broth microdilution, β-hemolytic streptococci", "conditions": "for fold more potent than teicoplanin and daptomycin / fold more potent than vancomycin: β-hemolytic streptococci; for MIC 50% / MIC 90%: β-hemolytic streptococci (23), MHB + lysed horse blood"}, "VanC enterococci (22)": {"tested_on": "VanC enterococci (22)", "experiment": "MIC broth microdilution, vanC-carrying enterococci", "conditions": "VanC enterococci (22)"}, "[12]": {"tested_on": "vancomycin-susceptible E. faecium (21)", "experiment": "MIC broth microdilution, vancomycin-susceptible E. faecium", "conditions": "E. faecium, vancomycin-susceptible (21)"}, "[13]": {"tested_on": "vancomycin-susceptible E. faecalis (23)", "experiment": "MIC broth microdilution, vancomycin-susceptible E. faecalis", "conditions": "E. faecalis, vancomycin-susceptible (23)"}, "[14]": {"tested_on": "methicillin-resistant S. aureus (MRSA, 22)", "experiment": "MIC broth microdilution, MRSA", "conditions": "MRSA (22)"}, "[15]": {"conditions": "1 mg/kg single intraperitoneal dose"}, "[16]": {"conditions": "4 mg/kg single intraperitoneal dose"}, "[17]": {"conditions": "16 mg/kg single intraperitoneal dose"}}, "data": [{"smiles": "CCCCCCCCCCNCCNC1(C)CC(OC2C(Oc3c4cc5cc3Oc3ccc(cc3Cl)C(O)C3NC(=O)C(NC(=O)C5NC(=O)C(CC(N)=O)NC(=O)C(NC(=O)C(CC(C)C)NC)C(O)c5ccc(c(Cl)c5)O4)c4ccc(O)c(c4)-c4c(cc(O)c(CNCCOCCOCC[N+](C)(C)C)c4O)C(C(=O)O)NC3=O)OC(CO)C(O)C2O)OC(C)C1O", "note": "(stereo not shown) [Compound 1]", "values": [{"measurement": "MIC 50%", "setting": "[1]", "result": 0.06, "unit": "mg/L"}, {"measurement": "MIC 90%", "setting": "[1]", "result": 0.06, "unit": "mg/L"}, {"measurement": "MIC 50%", "setting": "[2]", "result": 0.12, "unit": "mg/L"}, {"measurement": "MIC 50%", "setting": "[3]", "result": 2, "unit": "mg/L"}, {"measurement": "MIC 50%", "setting": "[4]", "result": 0.06, "unit": "mg/L"}, {"measurement": "MIC 90%", "setting": "[4]", "result": 0.06, "unit": "mg/L"}, {"measurement": "fold more potent than linezolid", "setting": "S. pneumoniae (22)", "result": 32, "unit": "fold"}, {"measurement": "MIC 50%", "setting": "S. pneumoniae (22)", "result": 0.015, "unit": "mg/L"}, {"measurement": "MIC 90%", "setting": "S. pneumoniae (22)", "result": 0.03, "unit": "mg/L"}, {"measurement": "MIC 50%", "setting": "[5]", "result": 0.03, "unit": "mg/L"}, {"measurement": "MIC 90%", "setting": "[5]", "result": 0.06, "unit": "mg/L"}, {"measurement": "MIC 50%", "setting": "[6]", "result": 4, "unit": "mg/L"}, {"measurement": "MIC 90%", "setting": "[6]", "result": 8, "unit": "mg/L"}, {"measurement": "MIC 50%", "setting": "[7]", "result": 0.015, "unit": "mg/L"}, {"measurement": "MIC 90%", "setting": "[7]", "result": 0.03, "unit": "mg/L"}, {"measurement": "Max Kill (maximum decrease from initial infection level)", "setting": "S. aureus ATCC 25923; [15]", "result": 0.15, "unit": "Log10 CFU/thigh"}, {"measurement": "AUCc-t (AUC difference between control and treated animals)", "setting": "S. aureus ATCC 25923; [15]", "result": "28 (Log10 CFU/thigh)/hr"}, {"measurement": "Max Kill (maximum decrease from initial infection level)", "setting": "S. aureus ATCC 25923; [16]", "result": "−1.14", "unit": "Log10 CFU/thigh"}, {"measurement": "AUCc-t (AUC difference between control and treated animals)", "setting": "S. aureus ATCC 25923; [16]", "result": "32.7 (Log10 CFU/thigh)/hr"}, {"measurement": "Max Kill (maximum decrease from initial infection level)", "setting": "S. aureus ATCC 25923; [17]", "result": "−1.07", "unit": "Log10 CFU/thigh"}, {"measurement": "AUCc-t (AUC difference between control and treated animals)", "setting": "S. aureus ATCC 25923; [17]", "result": "60.4 (Log10 CFU/thigh)/hr"}, {"measurement": "in vivo efficacy against S. aureus (in words)", "setting": "S. aureus ATCC 25923", "result": "bactericidal characteristics and prolonged in vivo activity"}, {"measurement": "MIC 50%", "setting": "[8]", "result": 8, "unit": "mg/L"}, {"measurement": "MIC 90%", "setting": "[8]", "result": 8, "unit": "mg/L"}, {"measurement": "MIC 50%", "setting": "[9]", "result": 0.12, "unit": "mg/L"}, {"measurement": "MIC 90%", "setting": "[9]", "result": 0.12, "unit": "mg/L"}, {"measurement": "MIC 50%", "setting": "[10]", "result": 0.06, "unit": "mg/L"}, {"measurement": "MIC 90%", "setting": "[10]", "result": 0.12, "unit": "mg/L"}, {"measurement": "fold more potent than teicoplanin and daptomycin", "setting": "[11]", "result": "two- to four"}, {"measurement": "fold more potent than vancomycin", "setting": "[11]", "result": "four- to eight"}, {"measurement": "MIC 50%", "setting": "[11]", "result": 0.03, "unit": "mg/L"}, {"measurement": "MIC 90%", "setting": "[11]", "result": 0.06, "unit": "mg/L"}, {"measurement": "MIC 50%", "setting": "VanC enterococci (22)", "result": 0.06, "unit": "mg/L"}, {"measurement": "MIC 90%", "setting": "VanC enterococci (22)", "result": 0.25, "unit": "mg/L"}, {"measurement": "MIC 50%", "setting": "[12]", "result": 0.03, "unit": "mg/L"}, {"measurement": "MIC 90%", "setting": "[12]", "result": 0.03, "unit": "mg/L"}, {"measurement": "MIC 50%", "setting": "[13]", "result": 0.06, "unit": "mg/L"}, {"measurement": "MIC 90%", "setting": "[13]", "result": 0.12, "unit": "mg/L"}]}, {"smiles": "CCCCCCCCCCNCCNC1(C)CC(OC2C(Oc3c4cc5cc3Oc3ccc(cc3Cl)C(O)C3NC(=O)C(NC(=O)C5NC(=O)C(CC(N)=O)NC(=O)C(NC(=O)C(CC(C)C)NC)C(O)c5ccc(c(Cl)c5)O4)c4ccc(O)c(c4)-c4c(cc(O)c(CNCCOCCOCCN)c4O)C(C(=O)O)NC3=O)OC(CO)C(O)C2O)OC(C)C1O", "note": "(stereo not shown) [Compound 3]", "values": [{"measurement": "MIC 50%", "setting": "[1]", "result": 0.03, "unit": "mg/L"}, {"measurement": "MIC 90%", "setting": "[1]", "result": 0.06, "unit": "mg/L"}, {"measurement": "MIC 50%", "setting": "[14]", "result": 0.03, "unit": "mg/L"}, {"measurement": "MIC 90%", "setting": "[14]", "result": 0.06, "unit": "mg/L"}, {"measurement": "MIC 50%", "setting": "[2]", "result": 0.12, "unit": "mg/L"}, {"measurement": "MIC 50%", "setting": "[3]", "result": 1, "unit": "mg/L"}, {"measurement": "MIC 50%", "setting": "[4]", "result": 0.06, "unit": "mg/L"}, {"measurement": "MIC 90%", "setting": "[4]", "result": 0.06, "unit": "mg/L"}, {"measurement": "fold more potent than linezolid", "setting": "S. pneumoniae (22)", "result": 32, "unit": "fold"}, {"measurement": "MIC 50%", "setting": "S. pneumoniae (22)", "result": 0.015, "unit": "mg/L"}, {"measurement": "MIC 90%", "setting": "S. pneumoniae (22)", "result": 0.03, "unit": "mg/L"}, {"measurement": "MIC 50%", "setting": "[5]", "result": 0.03, "unit": "mg/L"}, {"measurement": "MIC 90%", "setting": "[5]", "result": 0.03, "unit": "mg/L"}, {"measurement": "MIC 50%", "setting": "[6]", "result": 2, "unit": "mg/L"}, {"measurement": "MIC 90%", "setting": "[6]", "result": 4, "unit": "mg/L"}, {"measurement": "MIC 50%", "setting": "[7]", "result": 0.015, "unit": "mg/L"}, {"measurement": "MIC 90%", "setting": "[7]", "result": 0.015, "unit": "mg/L"}, {"measurement": "Max Kill (maximum decrease from initial infection level)", "setting": "S. aureus ATCC 25923; [15]", "result": "−0.2", "unit": "Log10 CFU/thigh"}, {"measurement": "AUCc-t (AUC difference between control and treated animals)", "setting": "S. aureus ATCC 25923; [15]", "result": "28.4 (Log10 CFU/thigh)/hr"}, {"measurement": "Max Kill (maximum decrease from initial infection level)", "setting": "S. aureus ATCC 25923; [16]", "result": "−0.41", "unit": "Log10 CFU/thigh"}, {"measurement": "AUCc-t (AUC difference between control and treated animals)", "setting": "S. aureus ATCC 25923; [16]", "result": "32.3 (Log10 CFU/thigh)/hr"}, {"measurement": "Max Kill (maximum decrease from initial infection level)", "setting": "S. aureus ATCC 25923; [17]", "result": "−1.08", "unit": "Log10 CFU/thigh"}, {"measurement": "AUCc-t (AUC difference between control and treated animals)", "setting": "S. aureus ATCC 25923; [17]", "result": "52.9 (Log10 CFU/thigh)/hr"}, {"measurement": "organism reduction across doses", "setting": "S. aureus ATCC 25923; 1, 4 and 16 mg/kg intraperitoneal", "result": "organism reduction over the entire dose range"}, {"measurement": "in vivo efficacy against S. aureus (in words)", "setting": "S. aureus ATCC 25923", "result": "bactericidal characteristics and prolonged in vivo activity"}, {"measurement": "MIC 50%", "setting": "[8]", "result": 4, "unit": "mg/L"}, {"measurement": "MIC 90%", "setting": "[8]", "result": 8, "unit": "mg/L"}, {"measurement": "MIC 50%", "setting": "[9]", "result": 0.06, "unit": "mg/L"}, {"measurement": "MIC 90%", "setting": "[9]", "result": 0.12, "unit": "mg/L"}, {"measurement": "MIC 50%", "setting": "[10]", "result": 0.03, "unit": "mg/L"}, {"measurement": "MIC 90%", "setting": "[10]", "result": 0.12, "unit": "mg/L"}, {"measurement": "fold more potent than teicoplanin and daptomycin", "setting": "[11]", "result": "two- to four"}, {"measurement": "fold more potent than vancomycin", "setting": "[11]", "result": "four- to eight"}, {"measurement": "MIC 50%", "setting": "[11]", "result": 0.03, "unit": "mg/L"}, {"measurement": "MIC 90%", "setting": "[11]", "result": 0.12, "unit": "mg/L"}, {"measurement": "MIC 50%", "setting": "VanC enterococci (22)", "result": 0.06, "unit": "mg/L"}, {"measurement": "MIC 90%", "setting": "VanC enterococci (22)", "result": 0.12, "unit": "mg/L"}, {"measurement": "MIC 50%", "setting": "[12]", "result": 0.015, "unit": "mg/L"}, {"measurement": "MIC 90%", "setting": "[12]", "result": 0.03, "unit": "mg/L"}, {"measurement": "MIC 50%", "setting": "[13]", "result": 0.06, "unit": "mg/L"}, {"measurement": "MIC 90%", "setting": "[13]", "result": 0.06, "unit": "mg/L"}]}]}
